From publication PMC5920098, “Identification of the allosteric P2X7 receptor antagonist [^11C]SMW139 as a PET tracer of microglial activation” (Scientific Reports, 2018)

Assay: LogDoct,7.4 by shake-flask method (1-octanol / 0.2 M phosphate buffer pH 7.4)
Type: physicochemical
Details: mean ± SD, read-out: LogDoct,7.4 (n = 3)
Description: The LogDoct,7.4 of analogues [^11C]1–3 and [^11C]SMW139 ([^11C]4) was determined using the shake-flask method (partitioning between 1-octanol and 0.2 M phosphate buffer (pH 7.4)). Determined LogDoct,7.4 values (Table 1) show the same trend as LogD values reported by Wilkinson et al.[10].
LogDoct,7.4 of [^11C]1–3 and [^11C]SMW139 was determined by the shake-flask method as described in the Supplementary Information.
Analytical HPLC chromatogram of [11C]SMW139 formulation (Platinum C18, MeCN/H2O/TFA 45:55:0.1, 1 […]
Determination of LogDoct,7.4
The distribution of radiolabelled compound between 1-octanol and 0.2 M phosphate buffer (pH = 7.4) was measured at room temperature. Briefly, 1 mL of a 20 MBq·mL-1 solution of radiolabelled compound in 0.2 M phosphate buffer (pH = 7.4) was mixed with 1 mL of 1-octanol for 1 min using a vortex mixer. After a settling period of 30 min, three samples of 100 μL were taken from both layers.
All samples were counted for radioactivity in a Wallac Universal Gammacounter 1282 (PerkinElmer, Waltham, MA, USA). The LogDoct,7.4 value was calculated according to LogDoct,7.4 = 10Log(Aoct/Abuffer), where Aoct and Abuffer represent average radioactivity counts of the three 1-octanol and the three […]
(1 picture or pasted object on this page, not shown here)

Question: For `[11CH3]Oc1ccc(Cl)c(C(=O)NCC23CC4(F)CC(F)(CC(F)(C4)C2)C3)c1` [[^11C]SMW139], which logD is on record?
Answer: The logD was 2.7 ± 0.01.
